Here are results for three compounds from patent US20240389599A1, “Antimicrobial Material Comprising a Tetraalkylphosphonium Ionic Liquid and Metal Nanoparticles” (University of Windsor, priority 2023, published 2024).

Format in all cases: cell-based
In one test the test system is E. coli. Kind of test: resazurin-based MIC/MBC screen of the TAPILs. An excerpt:
(§1) The MIC evaluation of the three TAPILs is shown with E. coli (a) and S. aureus (b) as the microorganism under study, using resazurin as an indicator of bacterial viability. The numbers on the right correspond to the TAPILs—i.e. “1” stands for TAPIL-1. The MIC and MBC values (c) are shown for the three TAPILs deployed against E. coli and S. aureus as representative microorganisms.
(§2) The three TAPILs were screened against E. coli and S. aureus according to standard procedures (FIG. 2). The bacteria were selected as they are the representative strains (gram negative and positive, respectively) used for European Union regulations in the evaluation of disinfectants. A standard resazurin-based assay was employed: A blue well indicates non-viable bacteria, while a pink one indicates bacterial viability. The MIC and the MBC values are summarized.

In another test the test system is S. aureus. Kind of test: resazurin-based MIC/MBC screen of the TAPILs. The conditions noted are these: resazurin assay.
Excerpt: as §1, §2
In general terms: Resazurin is reduced to fluorescent resorufin, in cell work by metabolically active cells.

Test [1] in a line: MIC/MBC of TAPIL-2 monitored upon ambient storage open to the atmosphere. The settings on record: 3 weeks ambient storage open to the atmosphere. An excerpt: The presence of one longer alkyl chain on the central phosphorus is believed to be preferred for anti-microbial activity since symmetrical TAPILs with four identical alkyl substituents around the phosphorus atom are likely to interact less strongly with the cell membrane to induce cell death. The MIC/MBC values of TAPIL-2 were monitored over a period of 3 weeks upon ambient storage open to the atmosphere. No change in its antimicrobial activity was detected.

On to `CCCCCCCCCCCCCC[P+](CCCCCC)(CCCCCC)CCCCCC.[Cl-]` [TAPIL-1], for which the “antibacterial properties (in words)” value in the test with E. coli (resazurin assay) and with S. aureus was “bacteriostatic properties at intermediate concentrations” each time.
As to `CCCCCCCC[P+](CCCCCC)(CCCCCC)CCCCCC.[Cl-]` [TAPIL-2], the “Minimum Bactericidal Concentration (MBC)” value with E. coli was under 65 µg/mL. Moreover, in test [1], the “change in antimicrobial activity (MIC/MBC values)” value is “No change”.
Consider `CCCCCCCCCCCCCC[P+](CCCCCC)(CCCCCC)CCCCCC.O=S(=O)([N-]S(=O)(=O)C(F)(F)F)C(F)(F)F` [TAPIL-3], for which the “concentration up to which no anti-bacterial effects are shown (MIC/MBC)” value with E. coli (resazurin assay) and in the test on S. aureus was over 2000 µg/mL each time.
